Columns and labels:
Progestin Receptor = target: T1, Progestin Receptor (Homo sapiens, UniProt P06401); conditions: cited from earlier work; for Progestin Receptor Binding Affinity: relative binding affinity
T1 sequence (P06401 1-933): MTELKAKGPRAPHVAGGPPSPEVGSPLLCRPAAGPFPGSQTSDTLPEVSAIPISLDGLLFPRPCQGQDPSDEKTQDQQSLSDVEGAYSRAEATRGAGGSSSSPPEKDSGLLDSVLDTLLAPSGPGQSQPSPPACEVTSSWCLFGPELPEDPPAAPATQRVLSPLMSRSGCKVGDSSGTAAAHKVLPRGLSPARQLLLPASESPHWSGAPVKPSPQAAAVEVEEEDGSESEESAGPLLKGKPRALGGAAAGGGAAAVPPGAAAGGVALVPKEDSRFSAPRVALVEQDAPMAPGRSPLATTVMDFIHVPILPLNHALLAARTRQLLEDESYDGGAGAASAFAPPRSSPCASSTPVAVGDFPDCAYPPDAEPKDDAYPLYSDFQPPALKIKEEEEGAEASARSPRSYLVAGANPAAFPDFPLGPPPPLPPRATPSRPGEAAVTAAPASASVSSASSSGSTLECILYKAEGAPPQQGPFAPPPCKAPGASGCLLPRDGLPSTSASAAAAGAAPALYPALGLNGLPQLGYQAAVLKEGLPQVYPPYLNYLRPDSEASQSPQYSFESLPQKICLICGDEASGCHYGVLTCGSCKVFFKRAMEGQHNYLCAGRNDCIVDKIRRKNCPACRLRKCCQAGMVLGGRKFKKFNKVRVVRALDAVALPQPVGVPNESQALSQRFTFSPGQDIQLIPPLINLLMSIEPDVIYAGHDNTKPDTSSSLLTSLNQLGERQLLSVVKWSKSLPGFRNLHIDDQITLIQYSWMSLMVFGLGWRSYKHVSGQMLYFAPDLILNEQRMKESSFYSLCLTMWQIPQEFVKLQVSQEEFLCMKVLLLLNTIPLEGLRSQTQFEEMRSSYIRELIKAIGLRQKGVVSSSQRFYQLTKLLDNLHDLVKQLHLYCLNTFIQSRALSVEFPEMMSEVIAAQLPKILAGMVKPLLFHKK

Triton treated rats = assay: Cholesterol lowering in Triton treated rats; assay type: in vivo, Charles Foster rats; conditions: Rattus norvegicus, ip; 200 mg/kg i.p.; read-out: % Change S. Chol.
Description: The primary hypolipidemic effect of these compounds was established in triton induced hyperlipidemia in Charles Foster rats. […] The cholesterol lowering effect of some representative compounds of pregrenadienols and pregrenadienones as compared to clofibrate and gugulsterone in triton treated Charles Foster rats is described in Table-2.

normal rats = assay: Hypolipidemic activity in normal rats; assay type: in vivo; conditions: 50 mg/kg
Description: In normal rats, 3β-hydroxypregna-5,16-dien-20one (2), at 50 mg/kg produced a significant lowering of serum cholesterol and triglycerides as describe in Table-3 below.

Androgen Receptor = target: T2, Androgen Receptor (Homo sapiens, UniProt P10275); conditions: relative binding affinity; cited from earlier work
T2 sequence (P10275 1-920): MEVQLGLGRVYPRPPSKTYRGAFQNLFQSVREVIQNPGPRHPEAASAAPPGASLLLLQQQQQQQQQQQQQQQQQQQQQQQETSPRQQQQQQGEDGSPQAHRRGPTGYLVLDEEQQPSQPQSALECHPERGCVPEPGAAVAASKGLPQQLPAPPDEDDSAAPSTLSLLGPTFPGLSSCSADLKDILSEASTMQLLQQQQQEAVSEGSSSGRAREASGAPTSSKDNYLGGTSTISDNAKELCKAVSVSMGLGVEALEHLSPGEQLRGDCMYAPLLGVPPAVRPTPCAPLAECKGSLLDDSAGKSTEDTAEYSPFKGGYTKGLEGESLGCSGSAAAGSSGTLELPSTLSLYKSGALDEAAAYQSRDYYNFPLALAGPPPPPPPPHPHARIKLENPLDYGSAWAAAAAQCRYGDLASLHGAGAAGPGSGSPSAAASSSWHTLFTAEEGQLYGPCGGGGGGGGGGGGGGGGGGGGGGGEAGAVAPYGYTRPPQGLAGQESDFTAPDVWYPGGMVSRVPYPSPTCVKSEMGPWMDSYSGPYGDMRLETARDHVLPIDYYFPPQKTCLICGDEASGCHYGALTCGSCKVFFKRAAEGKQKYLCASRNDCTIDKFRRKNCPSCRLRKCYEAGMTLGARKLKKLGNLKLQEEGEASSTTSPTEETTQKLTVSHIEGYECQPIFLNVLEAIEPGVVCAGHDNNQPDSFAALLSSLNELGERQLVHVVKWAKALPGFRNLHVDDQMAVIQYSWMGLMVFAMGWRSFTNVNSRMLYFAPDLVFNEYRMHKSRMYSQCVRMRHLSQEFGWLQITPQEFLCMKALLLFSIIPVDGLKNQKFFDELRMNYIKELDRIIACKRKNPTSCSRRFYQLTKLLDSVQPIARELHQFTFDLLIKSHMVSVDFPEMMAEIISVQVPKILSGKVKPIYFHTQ

[1] = tested on: endometrial proliferation; assay: Clauberg assay, endometrial proliferation on McPhail scale; assay type: in vivo; conditions: 50 mg/kg
Description: The progestational activity was also tested in vivo by Clauberg assay method. The degree of endometrial proliferation was estimated on the McPhail scale where 3′ or 4′ was considered as a full progestational effect.

Structure (SMILES): C#C[C@]1(O)CC[C@H]2[C@@H]3CCC4=CC(=O)CC[C@@H]4[C@H]3C(=C)C[C@@]21CC [3-Keto-desogestrel]
- Progestin Receptor Binding Affinity (Progestin Receptor): 8.6

Structure (SMILES): CCOC(=O)C(C)(C)Oc1ccc(Cl)cc1 [Compound 10, Clofibrate, reference compound]
- change in vivo at 200 mg/kg (Triton treated rats): -15%
- Serum Cholesterol (normal rats; 0 Days): 82.3 ± 3.3 mg %
- Serum Cholesterol (normal rats; 30 Days): 53.2 ± 2.0 mg %
- Serum Cholesterol % Fall (normal rats; 30 Days): 36%
- Serum Triglycerides (normal rats; 30 Days): 47.3 ± 3.2 mg %
- Serum Triglycerides % Fall compared to control (normal rats; 30 Days): 28%

Structure (SMILES): C#C[C@]1(O)C=C[C@H]2[C@@H]3CCC4=CC(=O)CC[C@@H]4[C@H]3CC[C@@]21CC [Gestodene]
- Androgen Receptor Binding Affinity (Androgen Receptor): 0.154
- Selectivity Index (A/P ratio) (Progestin Receptor; androgen vs progestin receptor): 28
- Progestin Receptor Binding Affinity (Progestin Receptor): 9.21

Structure (SMILES): CC(=O)[C@H]1CC[C@H]2[C@@H]3CCC4=CC(=O)CC[C@]4(C)[C@H]3CC[C@]12C [Progesterone, reference compound]
- progestational activity [1]: marked progestational activity

— patent US6875758B2, “Method of treating hyperlipidemic and hyperglycemic conditions in mammals using pregnadienols and pregnadienones” (Council of Scientific & Industrial Research, priority 1999, dated 2005)
